The source of these data is patent US7943580B2, “Polypeptide and the use thereof” (National Cerebral and Cardiovascular Center, priority 2004, dated 2011).

In test [1] the test system is conscious rats. Description: Blood hormone levels after central administration of NUNP and NSNP. It counts as in vivo, rat. The note with it: 20 minutes after central administration of 1 nmol.
Test [2] has as its system conscious rats. The test is described as above. It counts as in vivo, rat. The conditions noted are these: for prolactin level in blood: 20 minutes after central administration of 1 nmol. How it is done:
(§1) A catheter was placed in the lateral ventricle of Wistar rats (male, 8 weeks old) and housed under controlled conditions with free access to their diet, while they were accustomed to experimental procedures (22°, light-on from 7:00 to 19:00). […] (1) For feed intake during the dark phase, NMS was administered at 18:00 and their feed intake was measured during 19:00 to 7:00. In addition, (2) NMS was administered to 14 hour-fasted rats at 9:00 and immediately thereafter the feed intake was measured for 2 hours.
(§2) Changes in prolactin blood level by central administration were monitored. Central administration to conscious rats was performed in the same way as in EXAMPLE 9. The animal received rat NUNP-36 or rat NSNP-37 prepared by the procedure of EXAMPLE 14 and dissolved in physiological saline and then decapitated, followed by blood collection in 20 minutes or blood collection via the tail vein at each time after peptide administration. Prolactin was measured using RIA kit (Amersham). A direct effect on pituitary anterior cells was also examined. The pituitary anterior cells were prepared from Wistar rats (5 week old, male), incubated in a 96-well plate for 2 days and used for the experiment. After rat NUNP-36 or rat NSNP-37 was added, the culture supernatant was recovered 30 minutes after and the prolactin level was measured.

The next test concerns pituitary anterior cells. Description: Prolactin release from primary culture of anterior pituitary cells. It counts as cell-based. The conditions noted are these: primary culture of rat anterior pituitary cells, supernatant recovered 30 minutes after addition. How it is done: as §2
The test system of the next test is chick rectum. Description: Contractile activity on the chick rectum. The note with it: dose of 10 pmol, 37° C., Krebs-Henseleit solution. How it is done: Contraction of the rectum was then measured.
In test [3] the test system is Wistar rats. Description: Effect on feed intake by central administration. The class given is in vivo, rat. How it is done:
as §1

The test system of test [4] is Wistar rats. Description: Phase shift of circadian rhythms in spontaneous locomotor activity. The class given is in vivo, rat. How it is done:
Male Wistar rats (300-350 g) were used for the experiment of circadian rhythm phase shift. Intracerebroventricular administration was performed in accordance with the method of Ida et al. (Ida, T., et al., (1999) Brain Res., 821, 526, 1999). The spontaneous locomotor activity was measured by the method of Nakahara et al. (Nakahara, K., et al., Biochem. Biophys. Res. Commun., 318, 156, 2004). The phase shift of spontaneous locomotor activity rhythm was calculated based on the distance between the lines drawn by plotting a delay in time of daily onset of spontaneous locomotor activity for at least 10 days before and after the intracerebroventricular administration of NMS or physiological saline. The onset time of spontaneous locomotor activity was designated as CT12 (circadian time 12). Phase-response data were evaluated using one-way ANOVA followed by Scheffe's multiple comparisons test. […] At 90 minutes after the administration, rats were perfused with 2% paraformaldehyde. Immunostaining for c-Fos protein was performed according to the method of Date et al. (Date, Y, et al., Proc. Natl. Acad. Sci. USA, 96, 748, 1999). The intra-suprachiasmatic nucleus perfusion was performed by an improvement of the Piggins et al. method (Piggins, H. D., et al., J. Neurosci., 15, 5612, 1995). Rats were allowed to free run under constant dark conditions for 2 weeks. Each rat was then implanted with a 26-gauge stainless steel guide cannula in the stereotaxic coordinates by Paxinos and Watson (Paxinos, G. and Watson, C., The rat brain in stereotaxic coordinates, Academic Press, New York, USA, 1998) to reach the suprachiasmatic nucleus. […] The spontaneous locomotor activity was recorded for 2 weeks before and after the administration, respectively, according to the method of Nakahara et al. (Nakahara, K., et al., Biochem. Biophys. Res. Commun., 318, 156, 2004). At the conclusion of the experiment, the exact location of the cannula was determined histologically as follows. Rats received 1 μl of India ink to mark the administered site and were then decapitated. The brain was immediately frozen and cut on a cryostat into 20 μm coronal sections, followed by staining with Crystal Violet. The sections were analyzed by comparing to the corresponding rat brain atlas of Paxinos and Watson (Paxinos, G. and Watson, C., The rat brain in stereotaxic coordinates, Academic Press, New York, USA, 1998). When data obtained for the location was more than 200 μm away from the external border of the suprachiasmatic nucleus, the data was excluded from further analysis.

For the next test, the system named is c-Fos protein. Description: Immunostaining for c-Fos protein in the suprachiasmatic nucleus after intracerebroventricular administration. The conditions noted are these: intracerebroventricular 1 nmol at CT6, 90 minutes after administration, compared to physiological saline. The class given is in vivo, rat. How it is done: Male Wistar rats (300-350 g) were used for the experiment of circadian rhythm phase shift. Intracerebroventricular administration was performed in accordance with the method of Ida et al. (Ida, T., et al., (1999) Brain Res., 821, 526, 1999). The spontaneous locomotor activity was measured by the method of Nakahara et al. (Nakahara, K., et al., Biochem. Biophys. Res. Commun., 318, 156, 2004). The phase shift of spontaneous locomotor activity rhythm was calculated based on the distance between the lines drawn by plotting a delay in time of daily onset of spontaneous locomotor activity for at least 10 days before and after the intracerebroventricular administration of NMS or physiological saline. […] Phase-response data were evaluated using one-way ANOVA followed by Scheffe's multiple comparisons test. […] The spontaneous locomotor activity was recorded for 2 weeks before and after the administration, respectively, according to the method of Nakahara et al. (Nakahara, K., et al., Biochem. Biophys. Res. Commun., 318, 156, 2004). At the conclusion of the experiment, the exact location of the cannula was determined histologically as follows. […] The sections were analyzed by comparing to the corresponding rat brain atlas of Paxinos and Watson (Paxinos, G. and Watson, C., The rat brain in stereotaxic coordinates, Academic Press, New York, USA, 1998). […]

The test system of test [5] is conscious rats. Description: Prolactin release suppressing activity by central administration of NMS. The class given is in vivo, rat. The note with it: 20 minutes after central administration of 1 nmol. The method, then:
as §1
Changes in prolactin blood level by central administration of NMS were monitored. Central administration to conscious rats was performed as in EXAMPLE 9. Blood was collected by decapitation 20 minutes after peptide administration. Prolactin was assayed using RIA kit (Amersham).

The test system of a further test is Sprague-Dawley rats. Description: Hypertensive activity by transvenous administration to rat. The note with it: dose of 3 nmol/kg, pentobarbital-anesthetized rats.

In the case of “rat NSNP-37: rat neuromedin S N-terminal peptide-37, SEQ ID NO: 10 (FLFHYSRAWKSTHPVNSEFAPVHPLMRLAAKLPSRRM; listed as Rattus norvegicus)”, in the test with conscious rats [1], the “follicle-stimulating hormone level in blood” value worked out at 10.64 ± 0.72 ng/mL; the “other blood hormone (growth hormone, luteinizing hormone, corticosterone) levels” value was “any significant change was not noted”; the “thyroid-stimulating hormone level in blood” value was determined as 5.37 ± 0.51 ng/mL.

In the case of “rat NUNP-36: rat neuromedin U N-terminal peptide-36, SEQ ID NO: 40 (FLFHYSKTQKLGNSNVVSSVVHPLLQLVPQLHERRM; listed as Rattus norvegicus)”, in the test on conscious rats [2], the “prolactin level in blood” value worked out at 68.74 ± 10.4 ng/mL. For the same substance, the “prolactin level in blood” value in the test with conscious rats [2] (listed as Rat NUNP-36) is 27.34 ± 5.63 ng/mL. Moreover, the “time at which the prolactin level reached the peak” value in the test with conscious rats [2] (central administration at 1 nmol and 0.2 nmol) turned out to be 20 min. Also, in the test with conscious rats [2] (since 10 minutes after central administration at 1 nmol and 0.2 nmol), the “prolactin level in blood, dose and time dependency” value is “significant increase of prolactin level”. The “prolactin in the culture supernatant” value in the test on pituitary anterior cells is on record as “no change was noted”. Besides, in the test on conscious rats [1], the “follicle-stimulating hormone level in blood” value was 12.26 ± 0.95 ng/mL; the “other blood hormone (growth hormone, luteinizing hormone, corticosterone) levels” value is on record as “any significant change was not noted”; the “thyroid-stimulating hormone level in blood” value amounted to 4.92 ± 0.22 ng/mL.

Regarding “LPRLLHTDSRMATIDFPKKDPTTSLGRPFFLFRPRN [rat NMS]”, the “contraction of the chick rectum” value in the test with chick rectum was “significant contractile activity”. The “2 hour feed intake of fasted rats” value in the test with Wistar rats [3] (0.5 nmol into the lateral ventricle, 14 hour-fasted rats) is given as “significantly suppressed the feed intake”. In addition, in the test with Wistar rats [3] (administered into the lateral ventricle at 18:00, feed intake measured 19:00 to 7:00), the “feed intake during the dark phase” value is recorded as “significantly suppressed the feed intake dose-dependently”. Besides, the “dose at which the feed intake suppressing effect showed the maximum” value in the test on Wistar rats [3] (dark phase feed intake, lateral ventricle administration) was 1 nmol. Moreover, the “phase of spontaneous locomotor activity” value in the test with Wistar rats [4] (intracerebroventricular 1 nmol at CT3-9, constant dark conditions) is “advances in the phase”; in the test with Wistar rats [4] (intracerebroventricular 1 nmol at CT22-24, constant dark conditions) it was “delays in the phase”; in the test with Wistar rats [4] (intracerebroventricular 1 nmol at any other time, constant dark conditions) it was “No phase shift was observed”. For the same substance, the “length of circadian rhythm” value in the test with Wistar rats [4] (intracerebroventricular administration, any time) is listed as “not affected”. In addition, the figures for the “phase of circadian rhythms of spontaneous locomotor activity” value with Wistar rats [4] (microinjected directly into the suprachiasmatic nucleus at CT6) and in the test on Wistar rats [4] (microinjected directly into the suprachiasmatic nucleus at CT23) were “phase advances” and “delays”, respectively. Moreover, the “expression of c-Fos protein in the suprachiasmatic nucleus” value in the test with c-Fos protein is recorded as “increased”. The same substance came in with a blood prolactin level in the test on conscious rats [5] of 3.6 ± 1.2 ng/mL. For the same substance, the “blood pressure of rats” value in the test on Sprague-Dawley rats is listed as “significantly increased the blood pressure”.
